# In patent publication US20090182040A1, “Method of Preventing or Reducing Insecticidal Resistance” (BASF SE, priority 2006, published 2009):
# Tested on: adult pollen beetles with resistance against pyrethroids
# Experiment: Field trial on a commercial oilseed rape field: spray treatment, count of living adult pollen beetles
# Assay type: in vivo, Meligethes aeneus
# Experimental: Experiments were carried out on a commercial oilseed rape field location previously confirmed to have adult pollen beetles with resistance against pyrethroids. The experiments were carried out according the GEP settings for field trial set up and corresponding assessment of the treatments. The lay-out was a standard randomized block de-sign with 4 replicates. The different treatments (see Table 1 below) were prepared by diluting the respective products in water by well homogenized standard stirring in order to spray the four replicates at a spray volume of 300 to 400 liter per ha. The products used were the commercial formulation Fastac® OESC (containing 100 g per liter alpha-cypermethrin) and an experimental liquid formulation (containing 303.5 g PBO on a weight per weight basis). The three combinations of Fastac® OESC and the PBO containing liquid formulation in the Table 1 below were made as a tank mix of a standard rate of Fastac® OESC and a varying rate for the PBO containing formulation. The treatments were sprayed on the plants and the adult pollen beetles present on the plant by means of a knapsack sprayer at standard air pressure. The treatments were applied shortly after each other by appropriate rinsing in between according the GEP standard procedure. The development growth stage of the oilseed rape according to the BBCH code at the time of the treatment was 50 to 59 (the abbreviation “BBCH” stands for the Biologische Bundesanstalt, Bundessortenamt and Chemische Industrie). Shortly before the treatment the present adult pollen beetles were assessed in counting the number of adult pollen beetles present on 50 inflorescences—randomly taken—in each of the replicates. The total number of adult pollen beetles on the 4 replicates was then divided by 4 to give the average number of living adult pollen beetles per 50 inflorescenses, mentioned in the Table 1 below. The same procedure was followed respectively 3 and 6 days after the treatment (DAT).
structure (smiles),measurement,setting,value
CC1(C)C(C=C(Cl)Cl)C1C(=O)OC(C#N)c1cccc(Oc2ccccc2)c1 (stereo not drawn) [alpha-cypermethrin],Average number of living adult pollen beetles per 50 inflorescenses,"alpha-cypermethrin 7.5 g a.i./ha, 0 DAT (count shortly before treatment), oilseed rape field, 4 replicates",343
same,Average number of living adult pollen beetles per 50 inflorescenses,"alpha-cypermethrin 7.5 g a.i./ha, 3 DAT",119
same,Average number of living adult pollen beetles per 50 inflorescenses,"alpha-cypermethrin 7.5 g a.i./ha, 6 DAT",75
same,Average number of living adult pollen beetles per 50 inflorescenses,"alpha-cypermethrin 12.5 g a.i./ha, 0 DAT (count shortly before treatment)",352
same,Average number of living adult pollen beetles per 50 inflorescenses,"alpha-cypermethrin 12.5 g a.i./ha, 3 DAT",116
same,Average number of living adult pollen beetles per 50 inflorescenses,"alpha-cypermethrin 12.5 g a.i./ha, 6 DAT",79
